The target of the assay is LSD-1 enzyme (Homo sapiens (Human), UniProt O60341). It counts as biochemical. As to the method: Example A: LSD1 Histone Demethylase Biochemical Assay
LANCE LSD1/KDM1A demethylase assay—10 μL of 1 nM LSD-1 enzyme (ENZO BML-SE544-0050) in the assay buffer (50 mM Tris, pH 7.5, 0.01% Tween-20, 25 mM NaCl, 5 mM DTT) were preincubated for 1 hour at 25° C. with 0.8 μL compound/DMSO dotted in black 384 well polystyrene plates. […] Reactions were stopped by addition of 10 μL 1× LANCE Detection Buffer (PerkinElmer CR97-100) supplemented with 1.5 nM Eu-anti-unmodified H3K4 Antibody (PerkinElmer TRF0404), and 225 nM LANCE Ultra Streptavidin (PerkinElmer TRF102) along with 0.9 mM Tranylcypromine-HCl (Millipore 616431). After stopping the reactions plates were incubated for 30 minutes and read on a PHERAstar FS plate reader (BMG Labtech).

[1] abbreviates: 1 nM LSD-1 enzyme, 1 hour preincubation at 25° C., Biotin-labeled Histone H3 peptide substrate.

Where two headings read alike, the source gives them in different places. Some results are limits rather than exact numbers.

Take `COCC1(CN[C@@H]2C[C@H]2c2ccccc2)CCN(CCC(=O)O)CC1` [Example 22, 3-[4-(methoxymethyl)-4-({[(1R,2S)-2-phenylcyclopropyl]amino}methyl)piperidin-1-yl]propanoic Acid]: the IC50 (in general, the concentration needed to halve the response being measured) under setting [1] is below 100 nM.

On to `O=C(O)CCN1CCC(CN[C@@H]2C[C@H]2c2ccccc2)(COc2ccccc2F)CC1` [Example 37, 3-[4-[(2-fluorophenoxy)methyl]-4-({[(1R,2S)-2-phenylcyclopropyl]amino}methyl)piperidin-1-yl]propanoic Acid], for which the IC50 under setting [1] is below 100 nM. `CN(C)CC(=O)N1CCC(CN[C@@H]2C[C@H]2c2ccccc2)(Cc2cccc(C#N)c2)CC1` [Example 57, 3-{[1-[(dimethylamino)acetyl]-4-({[(1R,2S)-2-phenylcyclopropyl]amino}methyl)piperidin-4-yl]methyl}benzonitrile] registered an IC50 below 100 nM. In the case of `N#CC1(c2ccc(CC3(CN[C@@H]4C[C@H]4c4ccccc4)CCN(CCC(=O)O)CC3)cc2)CC1` [Example 26, 3-[4-[4-(1-cyanocyclopropyl)benzyl]-4-({[(1R,2S)-2-phenylcyclopropyl]amino}methyl)piperidin-1-yl]propanoic Acid], the half-maximal inhibitory concentration (IC50) under setting [1] was below 100 nM. On to `N#CCCN1CCC(CN[C@@H]2C[C@H]2c2ccccc2)(Cc2cccc(C(=O)O)c2)CC1` [Example 56, 3-{[1-(2-cyanoethyl)-4-({[(1R,2S)-2-phenylcyclopropyl]amino}methyl)piperidin-4-yl]methyl}benzoic Acid], for which the IC50 under setting [1] is below 100 nM. The compound `O=C(O)CCN1CCC(CN[C@@H]2C[C@H]2c2ccccc2)(Cc2ccc(F)cc2F)CC1` [Example 18, 3-[4-(2,4-difluorobenzyl)-4-({[(1R,2S)-2-phenylcyclopropyl]amino}methyl)piperidin-1-yl]propanoic Acid] showed an IC50 under setting [1] below 100 nM. On the same count and under the same terms, as for `O=C(O)CN1CCC(CN[C@@H]2C[C@H]2c2ccccc2)(Cc2ccc(F)cc2)CC1` [Example 13, [4-(4-fluorobenzyl)-4-({[(1R,2S)-2-phenylcyclopropyl]amino}methyl)piperidin-1-yl]acetic], the figure is below 100 nM. On the same count and under the same terms, as for `CCOCC1(CN[C@@H]2C[C@H]2c2ccccc2)CCN(CCC(=O)O)CC1` [Example 51, 3-[4-(ethoxymethyl)-4-({[(1R,2S)-2-phenylcyclopropyl]amino}methyl)piperidin-1-yl]propanoic Acid], the figure is below 100 nM; as for `N#CCc1ccc(CC2(CN[C@@H]3C[C@H]3c3ccccc3)CCN(CCC(=O)O)CC2)cc1` [Example 25, 3-[4-[4-(cyanomethyl)benzyl]-4-({[(1R,2S)-2-phenylcyclopropyl]amino}methyl)piperidin-1-yl]propanoic Acid], below 100 nM. On to `O=C(O)CCN1CCC(CN[C@@H]2C[C@H]2c2ccccc2)(Cc2cccc(F)c2F)CC1` [Example 19, 3-[4-(2,3-difluorobenzyl)-4-({[(1R,2S)-2-phenylcyclopropyl]amino}methyl)piperidin-1-yl]propanoic Acid], for which the IC50 under setting [1] is below 100 nM. Compound `O=C(O)CCN1CCC(CN[C@@H]2C[C@H]2c2ccccc2)(COc2ccc(F)cc2)CC1` [Example 39, 3-[4-[(4-fluorophenoxy)methyl]-4-({[(1R,2S)-2-phenylcyclopropyl]amino}methyl)piperidin-1-yl]propanoic Acid] showed an IC50 under setting [1] below 100 nM. In turn, `CN1CCC(CN[C@@H]2C[C@H]2c2ccccc2)(Cc2cccc(C(=O)O)c2)CC1` [Example 28, 3-{[1-methyl-4-({[(1R,2S)-2-phenylcyclopropyl]amino}methyl)piperidin-4-yl]methyl}benzoic Acid] returned an IC50 under setting [1] below 100 nM.

`Fc1ccc(CC2(CN[C@H]3C[C@@H]3c3ccccc3)CCNCC2)cc1` [Example 12, (1S,2R)—N-{[4-(4-fluorobenzyl)piperidin-4-yl]methyl}-2-phenylcyclopropanamine] had an IC50 under setting [1] below 100 nM.

`N#Cc1ccc(OCC2(CN[C@@H]3C[C@H]3c3ccccc3)CCN(CCC(=O)O)CC2)cc1` [Example 44, 3-[4-[(4-cyanophenoxy)methyl]-4-({[(1R,2S)-2-phenylcyclopropyl]amino}methyl)piperidin-1-yl]propanoic Acid]: the IC50 under setting [1] was below 100 nM.

Turning to `O=C(O)CCN1CCC(CN[C@@H]2C[C@H]2c2ccccc2)(Cc2ccc(F)cc2)CC1` [Example 8, 3-[4-(4-fluorobenzyl)-4-({[(1R,2S)-2-phenylcyclopropyl]amino}methyl)piperidin-1-yl]propanoic Acid], under setting [1], the IC50 was below 100 nM. `CNC(=O)CCN1CCC(CN[C@@H]2C[C@H]2c2ccccc2)(COC)CC1` [Example 24, 3-[4-(methoxymethyl)-4-({[(1R,2S)-2-phenylcyclopropyl]amino}methyl)piperidin-1-yl]-N-methylpropanamide] yielded an IC50 under setting [1] below 100 nM. Same read-out and setting: the figure for `O=C(O)CCN1CCC(CN[C@@H]2C[C@H]2c2ccccc2)(COC2CCCCC2)CC1` [Example 53, 3-[4-[(cyclohexyloxy)methyl]-4-({[(1R,2S)-2-phenylcyclopropyl]amino}methyl)piperidin-1-yl]propanoic Acid] is below 100 nM; for `CN(C)C(=O)CCN1CCC(CN[C@@H]2C[C@H]2c2ccccc2)(Cc2ccc(F)cc2)CC1` [Example 10, 3-[4-(4-fluorobenzyl)-4-({[(1R,2S)-2-phenylcyclopropyl]amino}methyl)piperidin-1-yl]-N,N-dimethylpropanamide] it is below 100 nM; for `O=C(O)CCN1CCC(CN[C@@H]2C[C@H]2c2ccccc2)(Cc2ccccc2F)CC1` [Example 16, 3-[4-(2-fluorobenzyl)-4-({[(1R,2S)-2-phenylcyclopropyl]amino}methyl)piperidin-1-yl]propanoic Acid] it is below 100 nM. With `O=C(O)CCN1CCC(CN[C@@H]2C[C@H]2c2ccccc2)(COCc2ccccc2)CC1` [Example 40, 3-[4-[(benzyloxy)methyl]-4-({[(1R,2S)-2-phenylcyclopropyl]amino}methyl)piperidin-1-yl]propanoic Acid], the IC50 under setting [1] was below 100 nM. The same measure, in the same setting: the figure for `CC(=O)N1CCC(CC#N)(CN[C@@H]2C[C@H]2c2ccccc2)CC1` (relative stereo) [Example 1, (1-Acetyl-4-{[(trans-2-phenylcyclopropyl)amino]methyl}piperidin-4-yl)acetonitrile] is below 100 nM; for `O=C(O)c1cccc(CC2(CN[C@@H]3C[C@H]3c3ccccc3)CCN(C3CCOCC3)CC2)c1` [Example 31, 3-{[4-({[(1R,2S)-2-phenylcyclopropyl]amino}methyl)-1-(tetrahydro-2H-pyran-4-yl)piperidin-4-yl]methyl}benzoic Acid] it is below 100 nM; for `Fc1ccc(CC2(CN[C@@H]3C[C@H]3c3ccccc3)CCNCC2)cc1` [Example 11, (1R,2S)—N-{[4-(4-fluorobenzyl)piperidin-4-yl]methyl}-2-phenylcyclopropanamine] it is below 100 nM.

For the compound `COCC1(CN[C@@H]2C[C@H]2c2ccccc2)CCN(CC(C)(C)C(=O)O)CC1` [Example 48, 3-[4-(methoxymethyl)-4-({[(1R,2S)-2-phenylcyclopropyl]amino}methyl)piperidin-1-yl]-2,2-dimethylpropanoic Acid], the IC50 under setting [1] was below 100 nM. The same measure, in the same setting: the figure for `N#Cc1ccc(CC2(CN[C@@H]3C[C@H]3c3ccccc3)CCN(CCC(=O)O)CC2)cc1` [Example 41, 3-[4-(4-cyanobenzyl)-4-({[(1R,2S)-2-phenylcyclopropyl]amino}methyl)piperidin-1-yl]propanoic Acid] is below 100 nM.

Source of the values: US10300051B2, “Cyclopropylamines as LSD1 inhibitors” (priority 2014, dated 2019).
